These results are taken from PMC12112033, “Application of Lipophilic Prodrug Charge Masking Strategy to Obtain Novel, Potential Oxytocin Prodrugs” (International Journal of Molecular Sciences, 2025).

Broadly, the Papp is the rate of passage across a membrane or cell layer, normalised by area and donor concentration. As a reminder, the Papp A→B is the apparent permeability from the apical to the basolateral side of a cell layer. Low values mean poor permeation, high ones ready permeation.

The nature of data set [1]: in vitro. As to conditions: for Papp at 5 h, 10 µM: PAMPA, pH 7.4, Papp ± SD (PAMPA). From the text:
The permeability of OT and its prodrugs was estimated by the PAMPA test (Corning, Gentest PAMPA Plate System). The PAMPA method is a common method for the permeability evaluation of early drug candidates. Although this system lacks transporters, paracellular pathway enzymes, and other cell-associated processes, it measures passive diffusion, the primary mechanism by which drugs traverse biological barriers. Consequently, due to its low cost, high throughput, and relative handling ease, it serves as screening tool for predicting drugs absorption potential. The PAMPA reflects the passive transport through biological membranes, and its results are reported to correlate with those obtained from the Caco-2 cell model.
A Gentest Pre-coated PAMPA Plate System was purchased from Corning® (Tewksbury, MA, USA). The assay was performed according to the provider instructions, following Caco-2 convention, where the top well is a donor well. The 10 µM solutions of OT, prodrugs, and permeability markers were prepared in PBS buffer, pH 7.4, from 1 mM stock solutions in dimethyl sulfoxide (DMSO). A total of 300 µL per well of tested compounds was added to the donor, filter plate, which, after distribution of all samples, was coupled with acceptor plate filed with 200 µL of phosphate-buffered saline (PBS) per well. All compounds were measured in triplicate. After 5 h of incubation at 25 °C, 200 µL samples were collected from acceptor and donor wells and analyzed using UHPLC-MS to determine concentrations of compounds.
Background: The PAMPA barrier holds no transporters, so it reflects passive diffusion.

Data set [2] is described as follows: in vitro. As to conditions: human, Caco-2. As for the experimental part: (§1) The transport of OT and its derivatives (Oct-OT, Hoc-OT, Dec-OT, Dod-OT) selected for further in vitro studies was evaluated at a target concentration of approximately 100 µg/mL. Intestinal transport was initiated by adding the tested compounds to the apical compartment for absorptive transport determination. The solutions from the acceptor compartments were sampled at 20-minute intervals to analyze the concentration of transported compounds.
(§2) The Caco-2 cell line (ATCC HTB-37), derived from human colon adenocarcinoma, was obtained from the American Type Culture Collection (ATCC, Manassas, VA, USA). Caco-2 cells were cultured at 37 °C under a 5% CO2 atmosphere using Dulbecco’s Modified Eagle’s Medium (DMEM), supplemented with 20% (v/v) fetal bovine serum, non-essential amino acids 100×, and gentamycin (50 mg/mL). For experiments, the Caco-2 cells were plated at a density of 4 × 10^5 cells per cm^2 on polyethylene terephthalate (PET) capillary pore membranes with a pore size of 0.4 μm and a growth surface area of 1.13 cm^2 (Greiner PET hanging). The culture medium was replaced every 2 days. All experiments were performed on differentiated Caco-2 cell monolayers 21 days post-seeding. To check the integrity of the Caco-2 monolayer, transepithelial electrical resistance (TEER) was measured by employing the Millicell Electrical Resistance System (Millipore, Bedford, MA, USA). Moreover, fluorescein-5(6)-sulfonic acid was used as a transport marker, added to the apical side of the Caco-2 cultures at 200 μg/mL concentration. Fluoresceinated sulfonic acid, with a molecular weight of 478 Da, is a hydrophilic, charged molecule at physiological pH and is considered cell impermeable. Unless specified otherwise, all chemicals were purchased from Merck KGaA (Darmstadt, Germany).
(§3) The analyzed compounds at non-cytotoxic concentration of approximately 100 μg/mL were prepared in Hank’s balanced salt solution (HBSS), which was adapted as a transport medium. […] Before the experiments, the Caco-2 monolayers were washed twice with HBSS and pre-incubated at 37 °C for 30 min. Transport was initiated by adding HBSS to the acceptor (basolateral) side and the analyzed compound to the donor (apical) side, which mimicked absorptive intestinal transport. The Caco-2 cell cultures were placed in the incubator (37 °C) and continuously agitated using a plate shaker (120 rpm). At 20 min intervals, a sample was taken from the acceptor compartment, and HPLC analyzed the concentration of the transported compound. Each sample volume was replaced with fresh HBSS warmed to 37 °C. To quantify the transport of compound across the Caco-2 cell monolayer, the apparent permeability coefficient (Papp) was determined according to the protocol previously described by Tavelin et al.. […]

The test system of data set [3] is Caco-2 cell monolayer. The data set can be described thus: Caco-2 monolayer integrity by TEER before and after treatment. It counts as cell-based, human. The settings on record: 100 µg/mL, 2 h treatment. As for the experimental part: This assessment was performed using a dose (100 µg/mL) and treatment time (2 h) similar to those applied in the intestinal transport analysis.
Caco-2 cells were cultured at 37 °C under a 5% CO2 atmosphere using Dulbecco’s Modified Eagle’s Medium (DMEM), supplemented with 20% (v/v) fetal bovine serum, non-essential amino acids 100×, and gentamycin (50 mg/mL). […] The culture medium was replaced every 2 days.

In data set [4] the test system is Caco-2 cell monolayer. The data set can be described thus: in vitro. The procedure: as §1, §2, §3
For data set [5] the following is noted: cited from earlier work.

SMILES strings stand for the structures.

In turn, `CC[C@H](C)[C@@H]1NC(=O)[C@H](Cc2ccc(O)cc2)NC(=O)[C@@H](NC(=O)OCCOC)CSSC[C@@H](C(=O)N2CCC[C@H]2C(=O)N[C@@H](CC(C)C)C(=O)NCC(N)=O)NC(=O)[C@H](CC(N)=O)NC(=O)[C@H](CCC(N)=O)NC1=O` [MeOEt-OT, MeOEt-Cys(&)-Tyr-Ile-Gln-Asn-Cys(&)-Pro-Leu-Gly-NH2] displayed a Papp at 5 h, 10 µM in data set [1] of 2.37 ± 0.52 ×10⁻⁶ cm/s.
The same measure, in the same setting: the same measure for `CCCOC(=O)N[C@H]1CSSC[C@@H](C(=O)N2CCC[C@H]2C(=O)N[C@@H](CC(C)C)C(=O)NCC(N)=O)NC(=O)[C@H](CC(N)=O)NC(=O)[C@H](CCC(N)=O)NC(=O)[C@H]([C@@H](C)CC)NC(=O)[C@H](Cc2ccc(O)cc2)NC1=O` [Prop-OT, Prop-Cys(&)-Tyr-Ile-Gln-Asn-Cys(&)-Pro-Leu-Gly-NH2]: 2.97 ± 0.64 ×10⁻⁶ cm/s.
`CCCCCCCCOC(=O)N[C@H]1CSSC[C@@H](C(=O)N2CCC[C@H]2C(=O)N[C@@H](CC(C)C)C(=O)NCC(N)=O)NC(=O)[C@H](CC(N)=O)NC(=O)[C@H](CCC(N)=O)NC(=O)[C@H]([C@@H](C)CC)NC(=O)[C@H](Cc2ccc(O)cc2)NC1=O` [Oct-OT, Oct-Cys(&)-Tyr-Ile-Gln-Asn-Cys(&)-Pro-Leu-Gly-NH2]: in data set [1], the “PAMPA permeability (in words)” value is recorded as “significantly better permeability” and the Papp at 5 h, 10 µM was 5.93 ± 0.86 ×10⁻⁶ cm/s. The compound further came in with a Papp A→B in data set [2] of 14 ± 2.27 ×10⁻⁶ cm/s. In data set [3], the “Caco-2 monolayer integrity (TEER before and after treatment)” value (“Caco-2 monolayer integrity” for short) was “stable and high monolayer integrity”.
Turning to `Cn1c(=O)c2c(ncn2C)n(C)c1=O` [Caffeine, reference compound], the “Mass Retention (PAMPA)” value in data set [1] (5 h, 10 µM, pH 7.4) was determined as 26%. Moreover, the Papp at 5 h, 10 µM in data set [1] worked out at 22 ± 11.2 ×10⁻⁶ cm/s.
Consider `CCCCCCOC(=O)N[C@H]1CSSC[C@@H](C(=O)N2CCC[C@H]2C(=O)N[C@@H](CC(C)C)C(=O)NCC(N)=O)NC(=O)[C@H](CC(N)=O)NC(=O)[C@H](CCC(N)=O)NC(=O)[C@H]([C@@H](C)CC)NC(=O)[C@H](Cc2ccc(O)cc2)NC1=O` [Hoc-OT, Hoc-Cys(&)-Tyr-Ile-Gln-Asn-Cys(&)-Pro-Leu-Gly-NH2], for which, in data set [1], the “PAMPA permeability (in words)” value is on record as “significantly better permeability” and the Papp at 5 h, 10 µM was 4.67 ± 0.66 ×10⁻⁶ cm/s. The same compound showed a Papp A→B in data set [2] of 1.99 ± 0.33 ×10⁻⁶ cm/s. The “Caco-2 permeability compared to OT (in words)” value in data set [4] is on record as “lower permeability than OT”. The “Caco-2 monolayer integrity” value in data set [3] is “stable and high monolayer integrity”.
`CCCCCCCCCCCCOC(=O)N[C@H]1CSSC[C@@H](C(=O)N2CCC[C@H]2C(=O)N[C@@H](CC(C)C)C(=O)NCC(N)=O)NC(=O)[C@H](CC(N)=O)NC(=O)[C@H](CCC(N)=O)NC(=O)[C@H]([C@@H](C)CC)NC(=O)[C@H](Cc2ccc(O)cc2)NC1=O` [Dod-OT, Dod-Cys(&)-Tyr-Ile-Gln-Asn-Cys(&)-Pro-Leu-Gly-NH2]: in data set [1], the “PAMPA permeability (in words)” value is recorded as “poor permeability” and the Papp at 5 h, 10 µM came to 1.08 ± 0.95 ×10⁻⁶ cm/s. The “Caco-2 monolayer integrity” value in data set [3] was “stable and high monolayer integrity”.
Turning to `CC[C@H](C)[C@@H]1NC(=O)[C@H](Cc2ccc(O)cc2)NC(=O)[C@@H](N)CSSC[C@@H](C(=O)N2CCC[C@H]2C(=O)N[C@@H](CC(C)C)C(=O)NCC(N)=O)NC(=O)[C@H](CC(N)=O)NC(=O)[C@H](CCC(N)=O)NC1=O` [OT, Cys(&)-Tyr-Ile-Gln-Asn-Cys(&)-Pro-Leu-Gly-NH2, reference compound], the “Time to peak levels after intranasal administration” value in data set [5] was 15 to 30 min. In data set [1], this compound had an apparent permeability (Papp) at 5 h, 10 µM of 2.2 ×10⁻⁶ cm/s. In data set [2], this compound showed a Papp A→B of 7.74 ± 0.53 ×10⁻⁶ cm/s. Also, the “Caco-2 monolayer integrity” value in data set [3] was “stable and high monolayer integrity”.
The compound `CCCCOC(=O)N[C@H]1CSSC[C@@H](C(=O)N2CCC[C@H]2C(=O)N[C@@H](CC(C)C)C(=O)NCC(N)=O)NC(=O)[C@H](CC(N)=O)NC(=O)[C@H](CCC(N)=O)NC(=O)[C@H]([C@@H](C)CC)NC(=O)[C@H](Cc2ccc(O)cc2)NC1=O` [But-OT, But-Cys(&)-Tyr-Ile-Gln-Asn-Cys(&)-Pro-Leu-Gly-NH2] had a Papp at 5 h, 10 µM in data set [1] of 2.2 ± 0.3 ×10⁻⁶ cm/s.
Same read-out and setting: the same measure for `CCOC(=O)N[C@H]1CSSC[C@@H](C(=O)N2CCC[C@H]2C(=O)N[C@@H](CC(C)C)C(=O)NCC(N)=O)NC(=O)[C@H](CC(N)=O)NC(=O)[C@H](CCC(N)=O)NC(=O)[C@H]([C@@H](C)CC)NC(=O)[C@H](Cc2ccc(O)cc2)NC1=O` [Et-OT, Et-Cys(&)-Tyr-Ile-Gln-Asn-Cys(&)-Pro-Leu-Gly-NH2]: 2.78 ± 0.17 ×10⁻⁶ cm/s.
`CCCCCCCCCCOC(=O)N[C@H]1CSSC[C@@H](C(=O)N2CCC[C@H]2C(=O)N[C@@H](CC(C)C)C(=O)NCC(N)=O)NC(=O)[C@H](CC(N)=O)NC(=O)[C@H](CCC(N)=O)NC(=O)[C@H]([C@@H](C)CC)NC(=O)[C@H](Cc2ccc(O)cc2)NC1=O` [Dec-OT, Dec-Cys(&)-Tyr-Ile-Gln-Asn-Cys(&)-Pro-Leu-Gly-NH2]: in data set [1], the “PAMPA permeability (in words)” value is listed as “significantly better permeability” and the apparent permeability coefficient (Papp) at 5 h, 10 µM was 9.28 ± 6.11 ×10⁻⁶ cm/s. In addition, the “Caco-2 monolayer integrity” value in data set [3] was “stable and high monolayer integrity”.
